Experimental data published in patent publication US20050013821A1, “Mint extract and related pharmaceutical compositions” (priority 2001, published 2005).

Experiments:
[1] = Solubility of menthol in composition ingredients; assay type: physicochemical; settings: in liquid paraffin, white soft paraffin and essential oils
[2] = tested on: burning pain sensations in the vicinity of the vulva or anus; assay: Other trials of mint extract compositions (gel, cream, wipes, spray) applied topically against burning pains; assay type: in vivo, human
Procedure: The composition may comprise the extract or equivalent up to 10% w/w but it is preferably present in a concentration of not more than substantially 5% w/w of the composition.
Additional to these trials, compositions were prepared using menthol (and others using peppermint oil) embodied in a light cream (which included water) with which small pieces of soft cloth were impregnated to form wipes. […] Alternative combinations of ingredients could be utilised, e.g. as known to those skilled in the art, possibly including a pharmaceutically acceptable excipient for the active ingredient/s. Preferably, the composition should contain one or more of vitamins E, A and D combined with a moisturizing element in white soft paraffin form (obtained as “Vaseline”, Registered Trade Mark in the UK) or aloe form for delicate skins. The composition should preferably be formulated so that it is effectively greaseless and non-staining. It should not contain hexachlorophene.

solubility [1]: at least 10 % w/w
SMILES: CC1CCC(C(C)C)C(O)C1 (centres unmarked) [menthol]
outcome of trials as wipes ([2]; light cream (including water) impregnated on pieces of soft cloth): just as successful | relief compared with peppermint oil ([2]; menthol used instead of peppermint oil): Much improved relief | outcome of trials as spray ([2]; spray including glycols, glycerol and ethanol): used successfully | effect relative to peppermint oil ([2]; summary statement, related mint extracts): substantially more
